Assay results published in US20260022142A1, “MACROCYCLIC IMMUNOMODULATORS” (Bristol-Myers Squibb Company, priority 2022, published 2026).
Bridge positions count the residues as written; N and C are the ends. Square brackets hold non-standard residues; d marks the D form. Peptide text beside a SMILES is read from it. * marks the point of attachment. ξ: configuration not given here. Phe(3-CF3) = N[C@@H](Cc1cccc(C(F)(F)F)c1)C(=O)O; Ala(morpholin-4-yl) = N[C@@H](CN1CCOCC1)C(=O)O; Phe(4-COOH) = N[C@@H](Cc1ccc(C(=O)O)cc1)C(=O)O; Bip = N[C@@H](Cc1ccc(-c2ccccc2)cc1)C(=O)O; Phe(3-CN) = N#Cc1cccc(C[C@H](N)C(=O)O)c1; NH(CH2)14COOH = O=C(O)CCCCCCCCCCCCCCN*; Phe(3-Me) = Cc1cccc(C[C@H](N)C(=O)O)c1; NH(CH2)12COOH = O=C(O)CCCCCCCCCCCCN*; Val(3-OH) = CC(C)(O)[C@H](N)C(=O)O; Cha = N[C@@H](CC1CCCCC1)C(=O)O; Thr(3ξ) = CC(O)[C@H](N)C(=O)O; Carboxymethyl = O=C(O)C*; Orn = NCCC[C@H](N)C(=O)O; Aun = NCCCCCCCCCCC(=O)O; Dab = NCC[C@H](N)C(=O)O; Dap = NC[C@H](N)C(=O)O; AEEA = NCCOCCOCC(=O)O

Target: T1, PD-1/PD-L1 interaction (PE-labeled human PD-L1-Ig binding to Jurkat cell line over-expressing human PD-1) (Homo sapiens, UniProt Q15116)
T1 construct: expressed in transfected cells; host or cells: Jurkat
Experiment: Jurkat-PD-1 Cell Binding High-Content Screening Assay (CBA)
Type: cell-based
Settings: Jurkat cell line over-expressing human PD-1; PE-labeled PD-L1-Ig 20 nM final; read-out: Jurkat hPD1-PDL1 IC50
Summary of the method: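 Jurkat cells over-expressing human PD-1 (8×10^3 per well, DMEM/10% FCS) preincubated with compound 2 h at 37° C, then PE-labeled human PD-L1-Ig (20 nM final) added for 1 h. Cells fixed with paraformaldehyde, Hoechst-stained, and bound fluorescence quantified by high-content imaging.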

T1 sequence (Q15116 25-288): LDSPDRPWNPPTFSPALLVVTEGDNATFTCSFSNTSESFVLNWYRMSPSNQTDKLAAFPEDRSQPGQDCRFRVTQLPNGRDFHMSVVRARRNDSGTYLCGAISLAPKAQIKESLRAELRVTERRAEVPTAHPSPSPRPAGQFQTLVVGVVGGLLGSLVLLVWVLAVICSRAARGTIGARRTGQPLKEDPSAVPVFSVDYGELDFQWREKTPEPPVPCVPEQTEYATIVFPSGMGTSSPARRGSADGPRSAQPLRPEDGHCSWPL

Row | Compound | IC50 [nM]
1 | Cc1cccc(C[C@@H]2NC(=O)[C@H](CC(=O)O)NC(=O)[C@H](Cc3ccc(OCC(=O)O)cc3)NC(=O)[C@H](C(C)O)NC(=O)CSC[C@@H](C(=O)N[C@@H](CCN)C(=O)NCCCCCCCCCCC(=O)O)NC(=O)[C@H](C(C)O)NC(=O)[C@H](C(C)C)NC(=O)[C@H](CC3CCCCC3)NC(=O)[C@H](CCN)NC(=O)[C@@H](CC(C)C)NC(=O)[C@H](CCCN)NC(=O)[C@H](CCC(=O)O)NC(=O)[C@H](Cc3ccc(-c4ccccc4)cc3)NC(=O)[C@H](C(C)C)NC2=O)c1 (stereo partly drawn) [Compound 3441] ({CH2CO}-[Thr(3ξ)]Y(Carboxymethyl)D[Phe(3-Me)]V[Bip]E[Orn][dL][Dab][Cha]V[Thr(3ξ)]C[Dab][Aun]-OH; thioether N-14) | 39.7
2 | CC[C@H](C)[C@@H]1NC(=O)[C@H](Cc2ccc(-c3ccccc3)cc2)NC(=O)[C@H](C(C)C)NC(=O)[C@H](Cc2cccc(C)c2)NC(=O)[C@H](CC(=O)O)NC(=O)[C@H](Cc2ccc(OCC(=O)O)cc2)NC(=O)[C@H](CN)NC(=O)CSC[C@@H](C(=O)NCCOCCOCC(=O)N[C@@H](CCN)C(=O)NCCCCCCCCCCC(=O)O)NC(=O)[C@H](CCCN)NC(=O)[C@H](C(C)C)NC(=O)[C@H](CC2CCCCC2)NC(=O)[C@H](CCN)NC(=O)[C@@H](CC(C)C)NC(=O)[C@H](CCCN)NC1=O [Compound 2630] ({CH2CO}-[Dap]Y(Carboxymethyl)D[Phe(3-Me)]V[Bip]I[Orn][dL][Dab][Cha]V[Orn]C[AEEA][Dab][Aun]-OH; thioether N-14) | 9.9
3 | CC(C)C[C@@H]1NC(=O)[C@H](Cc2c[nH]c3ccccc23)NC(=O)[C@H](CC(=O)O)NC(=O)[C@H](Cc2ccc(C(=O)O)cc2)NC(=O)[C@H](C(C)O)NC(=O)CSC[C@@H](C(=O)N[C@@H](C)C(=O)N[C@@H](CCN)C(=O)NCCCCCCCCCCCCCCC(=O)O)NC(=O)[C@H](CO)NC(=O)[C@H](C(C)C)NC(=O)[C@H](CC2CCCCC2)NC(=O)[C@H](Cc2c[nH]cn2)NC(=O)[C@@H](CC(C)C)NC(=O)[C@H](CCCN)NC(=O)[C@H](C(C)C)NC(=O)[C@H](Cc2ccc(-c3ccccc3)cc2)NC1=O (stereo partly drawn) [Compound 3024] ({CH2CO}-[Thr(3ξ)][Phe(4-COOH)]DWL[Bip]V[Orn][dL]H[Cha]VSCA[Dab]-{NH(CH2)14COOH}; thioether N-14) | 891

Next, values leading:

Row | IC50 [nM] | Compound
4 | 24 | CC(C)C[C@H]1NC(=O)[C@H](CCCN)NC(=O)[C@H](Cc2ccc(C(=O)O)cc2)NC(=O)[C@H](Cc2ccc(-c3ccccc3)cc2)NC(=O)[C@H](Cc2ccc(C(=O)O)cc2)NC(=O)[C@H](Cc2cccc(C(F)(F)F)c2)NC(=O)[C@H](CC(=O)O)NC(=O)[C@H](Cc2ccc(OCC(=O)O)cc2)NC(=O)[C@H](CN2CCOCC2)NC(=O)CSC[C@@H](C(=O)N[C@@H](CCN)C(=O)NCCOCCOCC(=O)NCCOCCOCC(=O)NCCCCCCCCCCCCC(=O)O)NC(=O)[C@H](CO)NC(=O)[C@H](C(C)(C)O)NC(=O)[C@H](CC2CCCCC2)NC(=O)[C@H](CCN)NC1=O [Compound 2914] ({CH2CO}-[Ala(morpholin-4-yl)]Y(Carboxymethyl)D[Phe(3-CF3)][Phe(4-COOH)][Bip][Phe(4-COOH)][Orn][dL][Dab][Cha][Val(3-OH)]SC[Dab][AEEA][AEEA]-{NH(CH2)12COOH}; thioether N-14)
5 | 32.6 | Cc1cccc(C[C@@H]2NC(=O)[C@H](CC(=O)O)NC(=O)[C@H](Cc3ccc(OCC(=O)O)cc3)NC(=O)[C@H](CN)NC(=O)CSC[C@@H](C(=O)N[C@@H](CCN)C(=O)NCCOCCOCC(=O)NCCCCCCCCCCC(=O)O)NC(=O)[C@H](CCCN)NC(=O)[C@H](C(C)C)NC(=O)[C@H](CC3CCCCC3)NC(=O)[C@H](CCN)NC(=O)[C@@H](CC(C)C)NC(=O)[C@H](CCCN)NC(=O)[C@H](Cc3cccc(C#N)c3)NC(=O)[C@H](Cc3ccc(-c4ccccc4)cc3)NC(=O)[C@H](Cc3ccc(O)cc3)NC2=O)c1 [Compound 2051] ({CH2CO}-[Dap]Y(Carboxymethyl)D[Phe(3-Me)]Y[Bip][Phe(3-CN)][Orn][dL][Dab][Cha]V[Orn]C[Dab][AEEA][Aun]-OH; thioether N-14)
